Measured values published in patent US20240343855A1, “PROCESS FOR THE PREPARATION OF POLYCARBODIIMIDES WITH AZIRIDINE FUNCTIONS, WHICH MAY BE USED AS CROSSLINKING AGENT” (Stahl International B.V., priority 2021, published 2024).

What was measured:
Bscl2-GFP reporter = type: cell-based, mouse; settings: 24 h exposure; in absence and presence of S9
Excerpt: (§1) The genotoxicity can be measured by the ToxTracker® assay (Toxys, Leiden, The Netherlands) as further described herein. The ToxTracker® assay can be applied for pure substances or for compositions. The ToxTracker assay is a panel of six validated GFP-based mouse embryonic stem (mES) reporter cell lines that can be used to identify the biological reactivity and potential carcinogenic properties of newly developed compounds in a single test. ToxTracker is a mammalian stem cell-based assay that monitors activation of specific cellular signalling pathways for detection of the biological reactivity of compounds. In contrast to the cancer-derived cell lines that are currently used for in vitro genotoxicity testing, stem cells are genetically stable and proficient in all cellular pathways required for accurate detection of potentially carcinogenic properties of compounds. Extensive whole-genome transcription profiling has led to identification of a panel of biomarker genes that are preferentially activated upon exposure to different classes of carcinogens and toxicants. […] A compound is considered not genotoxic when it induces a smaller than 2-fold increase in GFP expression in any of the reporters measured by the ToxTracker® assay (Toxys, Leiden, The Netherlands).
(§2) The genotoxicity was measured by the ToxTracker® assay (Toxys, Leiden, The Netherlands), which can be applied for pure substances or for compositions. […]
(§3) The six independent mES reporter cell lines were seeded in gelatin-coated 96-well cell culture plates in 200 μl mES cell medium (50.000 cells per well). […] Induction of the GFP reporters was determined after 24 h exposure using a flow cytometer. Only GFP expression in intact single cells was determined. Mean GFP fluorescence was measured and used to calculate GFP reporter induction compared to a vehicle control treatment. Cytotoxicity was estimated by cell count after 24 h exposure using a flow cytometer and was expressed as percentage of intact cells after 24 h exposure compared to vehicle exposed controls. […]

Rtkn-GFP reporter = type: cell-based, mouse; settings: 24 h exposure; in absence and presence of S9
Excerpt: as §1, §2, §3

Btg2-GFP reporter = type: cell-based, mouse; settings: 24 h exposure; in absence and presence of S9
Excerpt: as §1, §2, §3

[1] = tested on: GFP-based mouse embryonic stem (mES) reporter cell lines; settings: ToxTracker; positive = at least 2 fold increase in GFP expression in any reporter
Excerpt: The genotoxicity can be measured by the ToxTracker® assay (Toxys, Leiden, The Netherlands) as further described herein. The ToxTracker® assay can be applied for pure substances or for compositions. The ToxTracker assay is a panel of six validated GFP-based mouse embryonic stem (mES) reporter cell lines that can be used to identify the biological reactivity and potential carcinogenic properties of newly developed compounds in a single test. ToxTracker is a mammalian stem cell-based assay that monitors activation of specific cellular signalling pathways for detection of the biological reactivity of compounds. […] A compound is considered not genotoxic when it induces a smaller than 2-fold increase in GFP expression in any of the reporters measured by the ToxTracker® assay (Toxys, Leiden, The Netherlands).
as §2
as §3, with “treatment.” for “treatment. Cytotoxicity was estimated by cell count after 24 h exposure using a flow cytometer and was expressed as percentage of intact cells after 24 h exposure compared to vehicle exposed controls.”

Structure (SMILES): O=C(CCN1CC1)OCC(CO)(COC(=O)CCN1CC1)COC(=O)CCN1CC1 [CL-427, 1-Aziridinepropanoic acid, 1,1′-[2-[[3-(1-aziridinyl)-1-oxopropoxy]methyl]-2-(hydroxymethyl)-1,3-propanediyl]ester]
- activation of the Bscl2-GFP reporter (Bscl2-GFP reporter): activated
- activation of the Rtkn-GFP reporter (Rtkn-GFP reporter): activated
- activation of the Btg2-GFP reporter (Btg2-GFP reporter): activated
- genotoxicity conclusion [1]: considered genotoxic
